Reference: EP1144412B1, “IMMUNOSUPPRESSIVE EFFECTS OF PTERIDINE DERIVATIVES” (4 AZA Bioscience nv, priority 1998, dated 2000)
Where two headings read alike, the source gives them in different places.

Key:
[1] = tested on: Peripheral blood mononuclear cells (PBMC); experiment: Mixed lymphocyte reaction (MLR), [3H]-thymidine incorporation; format: cell-based; settings: Homo sapiens
Description: (§1) Various models may be used for testing an immunosuppressive effect. In vivo, for example, different transplantation models are available. They are strongly influenced by different immunogenicities, depending on the donor and recipient species used and depending on the nature of the transplanted organ. The survival time of transplanted organs can thus be used to measure the suppression of the immune response. In vitro, there exist also various models. The most used are lymphocyte activation tests. Usually activation is measured via lymphocyte proliferation. Inhibition of proliferation thus always means immunosuppression under the experimental conditions applied. There exist different stimuli for lymphocyte activation: • coculture of lymphocytes of […] (MLR = mixed lymphocyte reaction): lymphocytes expressing different minor and major antigens of the HLA-DR type (= alloantigens) activate each other non-specifically. • CD3 assay: here there is an activation of the T-lymphocytes via an exogenously added antibody (OKT3). This antibody reacts against the CD3 molecule located on the lymphocyte membrane. This molecule has a costimulatory function. […] This molecule is also located on the lymphocyte membrane, and delivers strong costimulatory signals.
Peripheral blood mononuclear cells (PBMC) were isolated from heparinized peripheral blood by density gradient centrifugation over Lymphoprep (Nycomed, Maorstua, Norway). Allogeneic PBMC or EBV-transformed human B cells [RPMI1788 (ATCC name CCL156)] which strongly express B7-1 and B7-2 were used as stimulator cells after irradiation with 30 Gy. MLR was performed in triplicate wells. After 5 days incubation at 37EC, 1 µCi [^3H]-thymidine was added to each cup. After a further 16 hours incubation, cells were harvested and counted in a β-counter.
The percent suppression of proliferation by drugs was counted using the formula Percent inhibition =((cpm + drugs) - cpm Cult. Med)/((cpm - drugs) - cpm Cult. Med.)x 100 [formula]

Highly purified T cells [2] = experiment: T cell proliferation induced by anti-CD3 mAb + PMA (BrdU incorporation); format: cell-based, Human; settings: Homo sapiens, T-cell
Description: as §1
(§2) T cells were purified by removing non-T cells. Briefly,monocytes were removed by cold agglutination. The resulting lymphoid cells were further purified by a cell enrichment immunocolumn [Cellect Human T (Biotex, Edmonton, Alberta, Canada)] by a process of negative selection.
(§3) Measurements of T cell proliferations induced by anti-CD3 mAb + PMA or anti-CD28 mAb + PMA
(§4) Highly purified T cells (10^6/ml) were stimulated by immobilized anti-CD3 àr anti-CD28 mAb in the presence of PMA. Anti-CD3 mAb (CLB-CD3; CLB, Amsterdam, The Netherlands) were fixed on the 96-microwell plates by incubating the wells with 50 µl of mAb solution (1/800 dilution in culture medium). Anti-CD28 mAb (CLB-CD28; CLB, Amsterdam, The Netherlands) 50 µl (1/650 dilution in culture medium) was added directly to the wells. Further, 20 µl PMA (Sigma, St. Louis, MO, USA) solution (final concentration: 0.5 ng/ml) was added. Subsequently, 20 µl of immunosuppressants were added by serial dilution in triplicate wells. Finally 100 µl of the T cell suspension (10^6/ml) was added. After 48-hour incubation at 37EC in 5% CO2 20 Φl BrdU (100 ΦM solution) (Cell Proliferation Elisa, Boehringer-Mannheim Belgium) was added to each well. After a further overnight incubation the T cell proliferation was measured using a colorimetric immunoassay for qualification of cell proliferation based on measurements of the incorporation of BrdU during DNAsynthesis. The optical density (OD) was measured by a Behring EL311 plate reader at 450 nm (reference wavelength: 690 nm). The percent suppression of proliferation by drugs was counted using the formula: Per cent inhibition =((OD + drugs) - (OD Cult. Med.))/((OD - drugs) - (OD Cult. Med.))x 100 [formula]

Highly purified T cells [3] = experiment: T cell proliferation induced by anti-CD28 mAb + PMA (BrdU incorporation); format: cell-based, Human; settings: Homo sapiens, T-cell
Description: as §1, §2, §3, §4

[4] = Table II, read-out: IC50 in µM of pteridine derivative MLR
[5] = untitled structure table, no unit printed there, same values in Table II as IC50 in µM, read-out: MLR
[6] = Table II, read-out: IC50 in µM of pteridine derivative ACD3
[7] = untitled structure table, no unit printed there, same values in Table II as IC50 in µM, read-out: aCD3
[8] = Table II, read-out: IC50 in µM of pteridine derivative aCD28
[9] = untitled structure table, no unit printed there, same values in Table II as IC50 in µM, read-out: aCD28
[10] = untitled structure table, IC50 subranges, read-out: MLR
[11] = untitled structure table, IC50 subranges, read-out: aCD3
[12] = untitled structure table, IC50 subranges, read-out: aCD28
[13] = Table III, comparison immunosuppressants, read-out: IC50 MLR
[14] = Table III, comparison immunosuppressants, read-out: IC50 aCD3
[15] = Table III, comparison immunosuppressants, read-out: IC50 aCD28
[16] = Table IV, known pteridine derivatives, IC50 subranges, read-out: MLR
[17] = Table IV, known pteridine derivatives, IC50 subranges, read-out: aCD3
[18] = Table IV, known pteridine derivatives, IC50 subranges, read-out: aCD28

| Compound | IC50 [1, 4] | IC50 [1, 5] | IC50 (Highly purified T cells [2]; [6]) | IC50 (Highly purified T cells [2]; [7]) | IC50 (Highly purified T cells [3]; [8]) | IC50 (Highly purified T cells [3]; [9]) | also measured |
| --- | --- | --- | --- | --- | --- | --- | --- |
| Nc1nc(N2CCNCC2)c2nc(-c3ccccc3)cnc2n1 [Compound 46, 2-amino-4-piperazino-6-phenylpteridine] | 12 µM | 12 µM | 11.7 µM | 11.7 µM | 5 µM | 5 µM |  |
| COc1ccc(-c2cnc3nc(NC(C)=O)nc(O)c3n2)cc1OC [Compound 64, 2-acetamido-4-hydroxy-6-(3,4-dimethoxyphenyl)pteridine] |  |  |  |  |  |  | IC50 [1, 10]: 16 to 150 µM; IC50 (Highly purified T cells [2]; [11]): > 151 µM; IC50 (Highly purified T cells [3]; [12]): 16 to 150 µM |
| Nc1nc(N2CCCCC2)c2nc(-c3ccccc3)cnc2n1 [Compound 37, 2-amino-4-piperidino-6-phenylpteridine] | 15 µM | 15 µM | 80 µM | 80 µM | 20 µM | 20 µM |  |
| Nc1nc(N)c2nc(CNCc3ccccc3)cnc2n1 [Compound 19, 2,4-diamino-6-benzylaminomethyl pteridine] | 50 µM | 50 µM | 123 µM | 123 µM | 118 µM | 118 µM |  |
| Cc1ccc(-c2cnc3nc(N)nc(N)c3n2)cc1 [Compound 7, 2,4-diamino-6-(4-tolyl)pteridine] | > 200 µM | > 200 µM | 110 µM | 110 µM | 25 µM | 25 µM |  |
| Nc1nc(N2CCOCC2)c2nc(-c3ccccc3)cnc2n1 [Compound 33, 2-amino-4-morpholino-6-phenylpteridine] | 15 µM | 15 µM | 100 µM | 100 µM | 20 µM | 20 µM |  |
| CN1CCN(c2nc(N)nc3ncc(-c4ccccc4)nc23)CC1 [Compound 41, 2-amino-4-N-methylpiperazino-6-phenylpteridine] | 15 µM | 15 µM | 40 µM | 40 µM | 25 µM | 25 µM |  |
| Nc1nc(N)c2nc(-c3ccc(Cl)cc3)cnc2n1 [Compound 9, 2,4-diamino-6-(4-chlorophenyl)pteridine] | 125 µM | 125 µM | 110 µM | 110 µM | 110 µM | 110 µM |  |
| Nc1nc(N)c2nc(-c3ccccc3)cnc2n1 [Compound 5, 2,4-diamino-6-phenyl pteridine] | > 200 µM | > 200 µM | > 200 µM | > 200 µM | > 200 µM | > 200 µM |  |
| CCOc1nc(N)nc2ncc(-c3ccccc3)nc12 [Compound 61, 2-amino-4-ethoxy-6-phenylpteridine] |  |  |  |  |  |  | IC50 [1, 10]: 1 to 15 µM; IC50 (Highly purified T cells [2]; [11]): 1 to 15 µM; IC50 (Highly purified T cells [3]; [12]): 1 to 15 µM |
| CN1CCN(c2nc(N)nc3ncc(-c4ccc(Cl)cc4)nc23)CC1 [Compound 42, 2-amino-4-N-methylpiperazino-6-(4-chlorophenyl)pteridine] | 4.8 µM | 4.8 µM | 11 µM | 11 µM | 4.2 µM | 4.2 µM |  |
| CO[C@H]1C[C@@H]2CC[C@@H](C)[C@@](O)(O2)C(=O)C(=O)N2CCCC[C@H]2C(=O)O[C@H]([C@H](C)C[C@@H]2CC[C@@H](O)[C@H](OC)C2)CC(=O)[C@H](C)/C=C(\C)[C@@H](O)[C@@H](OC)C(=O)[C@H](C)C[C@H](C)/C=C/C=C/C=C/1C [Rapamycin, reference compound] |  |  |  |  |  |  | IC50 [1, 13]: 0.001 µM; IC50 (Highly purified T cells [2]; [14]): 0.001 µM; IC50 (Highly purified T cells [3]; [15]): 0.001 µM |
| CCCN(CCC)c1nc(N)nc2ncc(-c3ccc(OC)c(OC)c3)nc12 [Compound 32, 2-amino-4-dipropylamino-6-(3,4-dimethoxyphenyl)pteridine] | 2.2 µM | 2.2 µM | 0.8 µM | 0.8 µM | 0.7 µM | 0.7 µM |  |
| CSCc1cnc2nc(N)nc(N)c2n1 [CH2 S CH3, reference compound] |  |  |  |  |  |  | IC50 [1, 16]: > 151 µM; IC50 (Highly purified T cells [2]; [17]): > 151 µM; IC50 (Highly purified T cells [3]; [18]): > 151 µM |
| Cc1cnc2nc(N)nc(N(C)C)c2n1 [Compound 60, 2-amino-4-dimethylamino-6-methylpteridine] |  |  |  |  |  |  | IC50 [1, 10]: 16 to 150 µM; IC50 (Highly purified T cells [2]; [11]): 16 to 150 µM; IC50 (Highly purified T cells [3]; [12]): 16 to 150 µM |
| COc1ccc(-c2cnc3nc(NC(C)=O)nc(OC(C)C)c3n2)cc1OC [Compound 65, 2-acetamido-4-i-propoxy-6-(3,4-dimethoxyphenyl)pteridine] |  |  |  |  |  |  | IC50 [1, 10]: 1 to 15 µM; IC50 (Highly purified T cells [2]; [11]): 16 to 150 µM; IC50 (Highly purified T cells [3]; [12]): 16 to 150 µM |
| CCCNc1nc(N)nc2ncc(-c3ccc(OC)c(OC)c3)nc12 [Compound 63, 2-amino-4-propylamino-6-(3,4-dimethoxyphenyl)pteridine] |  |  |  |  |  |  | IC50 [1, 10]: < 1 µM |
| Cc1ccc(-c2cnc3nc(N)nc(N(C)C)c3n2)cc1 [Compound 15, 2-amino-4-dimethylamino-6-(4-tolyl)pteridine] | 3.6 µM | 3.6 µM | 4.5 µM | 4.5 µM | 3.9 µM | 3.9 µM |  |
| CN(C)c1nc(N)nc2ncc(-c3ccccc3)nc12 [Compound 14, 2-amino-4-dimethylamino-6-phenylpteridine] | 5 µM | 5 µM | 15 µM | 15 µM | 15 µM | 15 µM |  |
| CN(C)Cc1cnc2nc(N)[nH]c(=O)c2n1 [CH2N(CH3)2, reference compound] |  |  |  |  |  |  | IC50 [1, 16]: > 151 µM; IC50 (Highly purified T cells [2]; [17]): > 151 µM; IC50 (Highly purified T cells [3]; [18]): > 151 µM |
| Cc1nc2nc(N)nc(N)c2nc1-c1ccccc1 [Compound 6, 2,4-diamino-6-phenyl-7-methylpteridine] | > 200 µM | > 200 µM | > 200 µM | > 200 µM | > 200 µM | > 200 µM |  |
| O=c1[nH]cc(F)c(=O)[nH]1 [Compound 5-FU, 5-Fluoro-uracil, reference compound] |  |  |  |  |  |  | IC50 (Highly purified T cells [2]; [14]): 50 µM; IC50 (Highly purified T cells [3]; [15]): 17 µM |
| CN(Cc1cnc2nc(N)nc(N)c2n1)c1ccc(C(=O)N[C@@H](CCC(=O)O)C(=O)O)cc1 [MTX, methatroxate, reference compound] |  |  |  |  |  |  | IC50 [1, 13]: 10 µM; IC50 (Highly purified T cells [2]; [14]): > 200 µM; IC50 (Highly purified T cells [3]; [15]): > 200 µM |
| CCN(CC)c1nc(N)nc2ncc(-c3ccccc3)nc12 [Compound 21, 2-amino-4-diethylamino-6-phenylpteridine] | 15 µM | 15 µM | 80 µM | 80 µM | 20 µM | 20 µM |  |
| CCN(CC)c1nc(N)nc2ncc(-c3ccc(OC)cc3)nc12 [Compound 23, 2-amino-4-diethylamino-6-(4-methoxyphenyl) pteridine] | 12 µM | 12 µM | 20 µM | 20 µM | 20 µM | 20 µM |  |
| CCOc1nc(N)nc2ncc(-c3ccc(OC)c(OC)c3)nc12 [Compound 66, 2-amino-4-ethoxy-6-(3,4-dimethoxyphenyl)pteridine] |  |  |  |  |  |  | IC50 (Highly purified T cells [2]; [11]): < 1 µM; IC50 (Highly purified T cells [3]; [12]): < 1 µM |
